Key:
[1] = test system: potato leafhopper (Empoasca fabae (Harris)); assay: Test D: control of potato leafhopper through contact and/or systemic means; assay type: in vivo; settings: 144 h, Soleil bean plant, adults, 6 days; for mortality at 250 ppm: tested at 250 ppm; for mortality at 50 ppm: tested at 50 ppm
Method: (§1) Test compounds were formulated using a solution containing 10% acetone, 90% water and 300 ppm Activator 90® non-ionic surfactant (Loveland Products, Loveland, Colo., USA). The formulated compounds were applied in 1 mL of liquid through an atomizer nozzle positioned 1.27 cm (0.5 inches) above the top of each test unit. Test compounds were sprayed at the rates indicated, and each test was replicated three times.
For evaluating control of potato leafhopper (Empoasca fabae (Harris)) through contact and/or systemic means, the test unit consisted of a small open container with a 5-6-day-old Soleil bean plant (primary leaves emerged) inside. White sand was added to the top of the soil, and one of the primary leaves was excised prior to application of the test compound.
Test compounds were formulated and sprayed at 250 and/or 50 ppm. After spraying of the formulated test compound, the test units were allowed to dry for 1 hour before they were post-infested with 5 potato leafhoppers (18-to-21-day-old adults). A black, screened cap was placed on the top of the test unit, and the test units were held for 6 days in a growth chamber at 20° C. and 70% relative humidity. Each test unit was then visually assessed for insect mortality.

[2] = test system: cotton melon aphid (Aphis gossypii (Glover)); assay: Test F: control of cotton melon aphid through contact and/or systemic means; assay type: in vivo; settings: 144 h, tested at 250 ppm, okra plant, 6 days
Method: as §1
[…] This was pre-infested with 30-40 insects on a piece of leaf according to the cut-leaf method, and the soil of the test unit was covered with a layer of sand.
Test compounds were formulated and sprayed at 250 and/or 50 ppm. After spraying, the test units were maintained in a growth chamber for 6 days at 19° C. and 70% relative humidity. Each test unit was then visually assessed for insect mortality.

melting point [°C]	SMILES	mortality at 250 ppm [1] [%]	mortality at 50 ppm [1] [%]	mortality at 250 ppm [2] [%]
–	O=C(CC(c1ccc(Cl)c(Cl)c1)C(F)(F)F)Nc1ccc(Cl)c(C(=O)Nc2ccc(F)cc2)c1 (stereo not drawn) [Compound 1, 3,4-dichloro-N-[4-chloro-3-[[(4-fluorophenyl)amino]carbonyl]phenyl]-β-(trifluoro-methyl)benzenepropanamide]	≥ 80	–	–
–	O=C(CC(c1cccc(C(F)(F)F)c1)C(F)(F)F)Nc1ccc(Cl)c(C(=O)Nc2ccc(F)cc2F)c1 (stereo not drawn) [Compound 5, N-[4-chloro-3-[[(2,4-difluorophenyl)amino]carbonyl]phenyl]-β,3-bis(trifluoromethyl)benzenepropanamide]	≥ 80	–	–
–	O=C(CC(c1ccc(Cl)c(Cl)c1)C(F)(F)F)Nc1ccc(Cl)c(C(=O)Nc2ccc(F)cc2F)c1 (stereo not drawn) [Compound 52, 3,4-dichloro-N-[4-chloro-3-[[(2,4-difluorophenyl)amino]carbonyl]phenyl]-β-(trifluoro-methyl)benzenepropanamide]	≥ 80	≥ 80	≥ 80
–	O=C(CC(c1cc(Cl)cc(Cl)c1)C(F)(F)F)Nc1ccc(Cl)c(C(=O)Nc2ccc(F)cc2F)c1 (stereo not drawn) [Compound 60, 3,5-dichloro-N-[4-chloro-3-[[(2,4-difluorophenyl)amino]carbonyl]phenyl]-β-(trifluoro-methyl)benzenepropanamide]	≥ 80	≥ 80	–
–	O=C(C[C@H](c1cccc(C(F)(F)F)c1)C(F)(F)F)Nc1ccc(Cl)c(C(=O)Nc2ccc(F)cc2F)c1 [Compound 103, (βR)—N-[4-chloro-3-[[(2,4-difluorophenyl)amino]carbonyl]phenyl]-β,3-bis(trisfluoromethyl)benzenepropanamide]	–	≥ 80	–
–	O=C(CC(c1ccc(F)c(Cl)c1)C(F)(F)F)Nc1ccc(Cl)c(C(=O)Nc2ccc(F)cc2F)c1 (stereo not drawn) [Compound 115, 3-chloro-N-[4-chloro-3-[[(2,4-difluorophenyl)amino]carbonyl]phenyl]-4-fluoro-β-(trifluoromethyl)benzenepropanamide]	–	≥ 80	–
96 to 99	O=C(CC(c1cccc(C(F)(F)F)c1)C(F)(F)F)Nc1ccc(Cl)c(C(=O)NCc2ccc(F)cc2F)c1 (stereo not drawn) [Compound 148, N-[4-chloro-3-[[(2,4-difluorophenyl)methylamino]carbonyl]phenyl]-β,3-bis(trifluoromethyl)benzenepropanamide]	–	–	–
